Patent US20130260365A1, “HIGHLY EFFICIENT PROCESS FOR PRODUCING BIOETHANOL” (HONDA MOTOR CO., LTD., priority 2012, published 2013)

Columns and labels:
[1] = tested on: fermentative microorganism cell (yeast); test: microbe, parasite or virus in culture; conditions: Saccharomyces cerevisiae, 24 h, read-out: Growth inhibition (%)
Method: Sugar solutions to which acetic acid or formic acid was added were prepared for comparison with a reagent sugar solution containing no organic acid, and the fermentative microorganism cell of the same count was added to each sugar solution and cultured. At this time, the pHs of the reagent sugar solutions were adjusted to be the same. The absorbance of the microorganic counts was measured 24 hours later. Using the sugar solution to which acetic acid or formic acid was not added as the criterion, the degrees of growth inhibition are shown below.

[2] = tested on: fermentative microorganism cell (yeast); conditions: for growth inhibition of fermentative microorganism cell: acetic acid 1000 or 500 mg/L, or formic acid 400 mg/L, added to reagent sugar solution, after 24 hours, compared with no organic acid added
[3] = tested on: fermentative microorganism cell; conditions: acetic acid added to give 17.79 mM vs sugar solution without acetic acid
Method: A model experiment was subsequently carried out. After 72 hours from feeding a microorganism cell to a rice straw sugar solution at 50° C.

Row | Compound | inhibition at 5900 µM [1] [%] | inhibition at 11900 µM [1] [%] | inhibition at 17800 µM [1] [%] | growth of the fermentative microorganism cell ([2]; 3000 mg/L of acetic acid added to the reagent sugar solution) | growth inhibition of fermentative microorganism cell [2] | microorganic growth (absorbance) [3] | inhibition at 10000 µM [1] [%] | inhibition at 20000 µM [1] [%] | inhibition at 30000 µM [1] [%]
1 | CC(=O)O [Acetic acid, acetic acid] | 10.4 | 28.8 | 75.3 | no growth | growth inhibition of fermentative microorganism cell was observed | evidently poorer |  |  | 
2 | O=CO [Formic acid, formic acid] |  |  |  |  | growth inhibition of fermentative microorganism cell was observed |  | 5.6 | 61.1 | 71.4
